Assay results: patent US10047115B2, “Cyclic dinucleotides useful for the treatment of inter alia cancer” (priority 2015, dated 2018)

Tested on: Female Balb/C mice
Experiment: Adjuvant activity in mice, HBsAg model, serum ELISA antibody titers
Settings: for HBsAg-specific serum IgG: HBsAg administered IM with adjuvant; for Anti-HBsAg titers compared with the nonadjuvanted benchmark: mice vaccinated IM
Method: This objective of this study was to evaluate the potential of STING agonists of the present invention to function as adjuvants in mice using the HBsAg model.
Female Balb/C Mice were Vaccinated IM
Vaccines were delivered intramuscularly two times at 21 day intervals, and sera were evaluated for systemic antibody responses. Spleens (3 mice/group) were collected for Luminex/ICS analysis.
Sera were harvested 14dp1 and 14dp2 vaccination. Serum was evaluated by ELISA for anti-HBsAg IgG, IgG1, and IgG2a titers.

SMILES	HBsAg-specific serum IgG	HBsAg-specific IgG levels, dose response (four doses, IM)	Anti-HBsAg titers compared with the nonadjuvanted benchmark	antibody titers compared with cGAMP (relative to dose)
Nc1nc2c(ncn2[C@@H]2O[C@@H]3COP(=O)(O)O[C@H]4[C@@H](F)[C@H](n5cnc6c(N)ncnc65)O[C@@H]4COP(=O)(O)O[C@@H]2[C@@H]3O)c(=O)[nH]1 [Example 1, (1R,6R,8R,9R,10R,15R,17R,18R)-17-(2-Amino-6-oxo-6,9-dihydro-1H-purin-9-yl)-8-(6-amino-9H-purin-9-yl)-9-fluoro-3,12,18-trihydroxy-2,4,7,11,13,16-hexaoxa-3λ^5,12λ^5-diphosphatricyclo[13.2.1.0^6,10]octadecane-3,12-dione]	high levels	dose responsive	significantly higher	no significant differences
Nc1nc2c(ncn2[C@@H]2O[C@@H]3COP(=O)(O)O[C@H]4[C@@H](O)[C@H](n5cnc6c(N)ncnc65)O[C@@H]4COP(=O)(O)O[C@@H]2[C@@H]3O)c(=O)[nH]1 [cGAMP, reference compound]	high levels		significantly higher	
